Reference: US12649059B2, “Methods for reducing bleeding in hemophilia by vagus nerve stimulation to prime platelets” (The Feinstein Institutes for Medical Research, priority 2022, dated 2026)
Where two headings read alike, the source gives them in different places.

How the values were obtained:
a7nAChR [1] = system: a7nAChR
Text: (§1) To confirm platelet a7nAChR modulates hemostasis, we first administered the pharmacological a7nAChR agonist nicotine to wild-type mice before tail injury. […] To restrict a7nAChR to platelets, we transferred platelets from wild-type or a7KO donor mice into a7nAChR-deficient animals before tail transection.
(§2) Mice are screened before study inclusion to ensure visual similarity and consistency between the anatomy of the tail tips and the site of transection. […] Following vagus nerve stimulation or sham surgery, tails are immersed in water at 37+1° C. for five minutes. Tails are then removed from the solution, amputated 2 mm from the tip with a razor blade, and immediately placed into a 50 mL beaker containing water at 37+1° C. Tails are allowed to bleed uncontrolled until bleeding stops for a minimum of ten seconds. This duration of bleeding is recorded as bleeding time. For analyses of bleeding in factor VIII deficient mice, tails are first immersed in 0.9% saline at 37±1° C. for five minutes. Tails are then removed and amputated 2 mm from the tip with a razor blade. Tails are then placed into a 50 mL conical tube containing 0.9% saline at 37±1° C. Tails are allowed to bleed freely for a total of ten minutes. Total blood loss is determined by densitometry by measuring absorbance at 550 nm. A standard curve is created from a known volume of blood.

a7nAChR [2] = target: a7nAChR (Mus musculus, UniProt P49582)
a7nAChR (Mus musculus, UniProt P49582), sequence (P49582 23-502): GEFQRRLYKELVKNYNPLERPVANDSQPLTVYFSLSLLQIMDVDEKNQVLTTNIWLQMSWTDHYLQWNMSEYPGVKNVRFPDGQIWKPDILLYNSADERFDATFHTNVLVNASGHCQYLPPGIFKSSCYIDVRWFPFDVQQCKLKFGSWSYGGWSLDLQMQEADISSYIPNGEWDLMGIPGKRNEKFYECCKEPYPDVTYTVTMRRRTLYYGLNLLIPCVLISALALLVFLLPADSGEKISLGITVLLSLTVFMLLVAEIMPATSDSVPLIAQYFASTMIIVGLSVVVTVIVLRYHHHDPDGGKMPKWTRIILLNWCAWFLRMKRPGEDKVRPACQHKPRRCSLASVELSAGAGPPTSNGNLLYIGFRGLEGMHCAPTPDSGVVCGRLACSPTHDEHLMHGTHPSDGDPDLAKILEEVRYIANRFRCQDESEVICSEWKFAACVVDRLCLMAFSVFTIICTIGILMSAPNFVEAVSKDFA
Text: as §1, §2

CN1CCCC1c1cccnc1 (stereo not shown) [nicotine]
bleeding time as compared with vehicle treatment (a7nAChR [1]; a7nAChR-deficient mice receiving platelets from a7KO donors, FIG. 2H): not
bleeding time as compared with vehicle treatment (a7nAChR [1]; a7nAChR-deficient mice, nicotine before tail transection, FIG. 2G): fails to reduce bleeding time
bleeding time as compared with vehicle treatment (a7nAChR [2]; a7nAChR-deficient mice reconstituted with wild-type platelets, FIG. 2H, p<0.05 vs. vehicle control): significantly reduces bleeding time
bleeding time as compared with vehicle treatment (a7nAChR [2]; wild-type mice, nicotine before tail injury, FIG. 2G, p<0.01 vs. vehicle control): significantly decreases bleeding time
